Data on one compound can be found in article PMC8449129, “Single tracer-based protocol for broad-spectrum kinase profiling in live cells with NanoBRET” (STAR Protocols, 2021).

SMILES strings stand for the structures.

Test in all cases: cell-based
What all share (set-up): NanoBRET live-cell target engagement; % occupancy from displacement of tracer K10 on NanoLuc-kinase fusions, mean n=3
Holding throughout (conditions): HEK293, read-out: % inhibition
On the technique in general: In BRET a luciferase serves as donor, and the signal depends on an acceptor being close.

Test [1] has as its target BRAF(V600E) (Homo sapiens, UniProt P15056, V600E). The protocol: (§1) • 18. Prepare 10× test compounds in OptiMEM • a. Dilute the test compound to 1000× in DMSO (or the test compound solvent). […] Add 10μL per well of 10× test compound or 10μL of the DMSO control to the 96-well plates containing cells with 1× tracer. Mix on orbital shaker for 15 s at 900 rpm. • 20. Incubate the plate at 37°C + 5% CO2 incubator for 2hr. Allow plate to cool to RT for ∼15 min, then proceed to NanoBRET^TM Assay section below. • 21. Immediately before the BRET measurements, prepare 3× Complete NanoBRET^TM Nano-Glo® Substrate in OptiMEM without serum or phenol red. […] Mix gently by inverting 5–10 times in a conical tube. (The final concentration of Extracellular NanoLuc inhibitor in the 3× solution is 60 μM, for a working concentration of 20 μM.) • a. Note: 3× solutions should be used within 1.5 h after preparation. • 22. […] Incubate 2–3 min at RT. Following addition of NanoBRET^TM Nano-Glo® Substrate, measure donor emission (e.g., 450 nm) and acceptor emission (e.g., 610 nm or 630 nm) using a NanoBRET™-compatible luminometer. Fractional occupancy Quantitation • 2. Determine Fractional Occupancy with the following equation; % Occupancy = [1 – (X – Z)/( Y – Z)]∗100 • Where: • X = BRET in the presence of the test compound and tracer, • Y = BRET in the presence of the 100% BRET Control (Tracer + DMSO) • Z = BRET for the Zero BRET Control, e.g., • a. BRET from the NanoLuc Control Vector • b. BRET from Kinase/NanoLuc fusion + saturating dose of control test compound.

Test [2] addresses PLK2 (Homo sapiens, UniProt Q9NYY3). The protocol:
as §1

The target in test [3] is MARK4 (Homo sapiens, UniProt Q96L34). The protocol:
as §1

Test [4] deals with IKBKE (Homo sapiens, UniProt Q14164). The protocol: as §1
Test [5] concerns the target SLK (Homo sapiens, UniProt Q9H2G2). The protocol: as §1
Test [6] concerns the target TLK2 (Homo sapiens, UniProt Q86UE8). The protocol:
as §1

The target of test [7] is PRKX (Homo sapiens, UniProt P51817). The protocol:
as §1

Test [8] concerns the target MAPK8 (Homo sapiens, UniProt P45983). The protocol:
as §1

The target of test [9] is CSNK2A1 (Homo sapiens, UniProt P68400). The protocol:
as §1

For test [10], the target named is HIPK3 (Homo sapiens, UniProt Q9H422). The protocol:
as §1

For test [11], the target named is ULK2 (Homo sapiens, UniProt Q8IYT8). The protocol: as §1
For test [12], the target named is RPS6KA1 (Homo sapiens, UniProt Q15418). The protocol:
as §1

Test [13] addresses MAST3 (Homo sapiens, UniProt O60307). The protocol:
as §1

In test [14] the target is PRKAA1 (Homo sapiens, UniProt Q13131). The protocol: as §1
PRKAA1, sequence (Q13131 whole entry): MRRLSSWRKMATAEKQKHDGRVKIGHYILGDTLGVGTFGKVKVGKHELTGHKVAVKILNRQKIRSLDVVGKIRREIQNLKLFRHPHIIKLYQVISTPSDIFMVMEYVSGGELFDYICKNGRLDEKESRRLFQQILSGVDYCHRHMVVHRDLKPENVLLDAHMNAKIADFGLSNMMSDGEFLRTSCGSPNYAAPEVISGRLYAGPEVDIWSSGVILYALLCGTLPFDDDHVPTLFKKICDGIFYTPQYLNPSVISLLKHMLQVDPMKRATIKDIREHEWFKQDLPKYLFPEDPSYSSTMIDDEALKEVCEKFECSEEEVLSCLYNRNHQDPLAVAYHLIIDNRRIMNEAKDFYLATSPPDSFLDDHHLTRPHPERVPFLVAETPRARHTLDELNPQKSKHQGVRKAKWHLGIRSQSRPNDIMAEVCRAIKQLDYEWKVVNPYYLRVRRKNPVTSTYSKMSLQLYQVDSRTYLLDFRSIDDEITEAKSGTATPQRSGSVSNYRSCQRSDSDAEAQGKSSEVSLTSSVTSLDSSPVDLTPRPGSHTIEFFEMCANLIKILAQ
PRKAA1, sequence (P54619 whole entry partner): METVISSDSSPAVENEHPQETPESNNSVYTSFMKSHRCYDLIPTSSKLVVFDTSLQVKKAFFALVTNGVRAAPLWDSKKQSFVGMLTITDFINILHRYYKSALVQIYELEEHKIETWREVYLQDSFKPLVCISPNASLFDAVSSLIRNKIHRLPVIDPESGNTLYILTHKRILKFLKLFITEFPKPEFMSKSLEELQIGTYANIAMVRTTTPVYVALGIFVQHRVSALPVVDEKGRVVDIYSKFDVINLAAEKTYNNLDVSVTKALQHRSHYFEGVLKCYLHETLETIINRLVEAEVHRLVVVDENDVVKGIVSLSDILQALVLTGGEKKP
PRKAA1, sequence (Q9Y478 whole entry partner): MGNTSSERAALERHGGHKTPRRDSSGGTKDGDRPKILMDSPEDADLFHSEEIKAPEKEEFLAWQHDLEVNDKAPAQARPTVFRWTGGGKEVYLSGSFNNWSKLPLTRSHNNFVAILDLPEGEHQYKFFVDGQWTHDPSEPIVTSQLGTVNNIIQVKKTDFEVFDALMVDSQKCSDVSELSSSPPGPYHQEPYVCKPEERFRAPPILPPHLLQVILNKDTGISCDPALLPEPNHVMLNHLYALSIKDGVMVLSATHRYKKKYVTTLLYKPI
Test [15] concerns the target IGF1R (Homo sapiens, UniProt P08069). The protocol: as §1
For test [16], the target named is PTK2 (Homo sapiens, UniProt Q05397). The protocol: as §1
Test [17] deals with CDK5 (Homo sapiens, UniProt Q00535). The protocol: as §1
CDK5, sequence (Q00535 whole entry): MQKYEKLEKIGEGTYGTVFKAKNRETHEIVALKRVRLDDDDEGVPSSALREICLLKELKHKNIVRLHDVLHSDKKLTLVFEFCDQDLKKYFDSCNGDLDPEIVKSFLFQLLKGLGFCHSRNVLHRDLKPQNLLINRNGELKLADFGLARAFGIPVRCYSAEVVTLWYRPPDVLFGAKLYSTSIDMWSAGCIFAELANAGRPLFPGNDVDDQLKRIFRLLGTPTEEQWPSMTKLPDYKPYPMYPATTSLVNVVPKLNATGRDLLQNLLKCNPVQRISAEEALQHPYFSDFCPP
In test [18] the target is NLK (Homo sapiens, UniProt Q9UBE8). The protocol: as §1
NLK, sequence (Q9UBE8 whole entry): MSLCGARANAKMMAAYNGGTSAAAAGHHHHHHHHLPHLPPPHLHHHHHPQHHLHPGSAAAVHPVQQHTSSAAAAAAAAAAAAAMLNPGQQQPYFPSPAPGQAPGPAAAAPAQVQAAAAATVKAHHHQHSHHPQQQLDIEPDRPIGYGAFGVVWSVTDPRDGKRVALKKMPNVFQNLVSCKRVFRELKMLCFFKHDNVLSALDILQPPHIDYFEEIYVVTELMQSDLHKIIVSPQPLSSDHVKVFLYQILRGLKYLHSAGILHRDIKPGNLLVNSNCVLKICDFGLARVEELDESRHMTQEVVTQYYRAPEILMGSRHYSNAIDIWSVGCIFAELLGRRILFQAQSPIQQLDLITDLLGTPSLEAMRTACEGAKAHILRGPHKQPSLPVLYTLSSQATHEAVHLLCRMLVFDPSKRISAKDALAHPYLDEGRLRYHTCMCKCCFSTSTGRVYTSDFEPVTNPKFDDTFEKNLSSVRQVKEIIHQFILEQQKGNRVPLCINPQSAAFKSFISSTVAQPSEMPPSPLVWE

MARK4, sequence (Q96L34 whole entry): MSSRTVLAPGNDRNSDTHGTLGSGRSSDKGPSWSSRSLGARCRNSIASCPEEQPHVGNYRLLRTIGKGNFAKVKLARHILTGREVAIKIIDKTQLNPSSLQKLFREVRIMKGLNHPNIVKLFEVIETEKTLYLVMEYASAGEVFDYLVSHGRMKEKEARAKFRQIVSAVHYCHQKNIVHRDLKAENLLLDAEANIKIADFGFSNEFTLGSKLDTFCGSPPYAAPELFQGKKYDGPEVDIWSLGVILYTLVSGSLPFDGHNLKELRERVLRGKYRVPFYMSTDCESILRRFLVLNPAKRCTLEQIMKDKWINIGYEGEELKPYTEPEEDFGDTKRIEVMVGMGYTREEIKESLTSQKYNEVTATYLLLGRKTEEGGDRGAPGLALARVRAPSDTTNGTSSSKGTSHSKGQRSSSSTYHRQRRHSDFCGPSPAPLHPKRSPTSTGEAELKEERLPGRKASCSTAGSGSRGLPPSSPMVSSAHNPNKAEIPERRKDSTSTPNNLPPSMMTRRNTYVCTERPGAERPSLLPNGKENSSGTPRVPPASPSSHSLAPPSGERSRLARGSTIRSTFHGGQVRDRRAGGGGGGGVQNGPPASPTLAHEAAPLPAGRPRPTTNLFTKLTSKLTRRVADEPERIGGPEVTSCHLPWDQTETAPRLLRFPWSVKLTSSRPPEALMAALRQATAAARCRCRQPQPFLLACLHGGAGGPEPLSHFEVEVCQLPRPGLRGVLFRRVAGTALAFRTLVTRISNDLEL
RPS6KA1, sequence (Q15418 whole entry): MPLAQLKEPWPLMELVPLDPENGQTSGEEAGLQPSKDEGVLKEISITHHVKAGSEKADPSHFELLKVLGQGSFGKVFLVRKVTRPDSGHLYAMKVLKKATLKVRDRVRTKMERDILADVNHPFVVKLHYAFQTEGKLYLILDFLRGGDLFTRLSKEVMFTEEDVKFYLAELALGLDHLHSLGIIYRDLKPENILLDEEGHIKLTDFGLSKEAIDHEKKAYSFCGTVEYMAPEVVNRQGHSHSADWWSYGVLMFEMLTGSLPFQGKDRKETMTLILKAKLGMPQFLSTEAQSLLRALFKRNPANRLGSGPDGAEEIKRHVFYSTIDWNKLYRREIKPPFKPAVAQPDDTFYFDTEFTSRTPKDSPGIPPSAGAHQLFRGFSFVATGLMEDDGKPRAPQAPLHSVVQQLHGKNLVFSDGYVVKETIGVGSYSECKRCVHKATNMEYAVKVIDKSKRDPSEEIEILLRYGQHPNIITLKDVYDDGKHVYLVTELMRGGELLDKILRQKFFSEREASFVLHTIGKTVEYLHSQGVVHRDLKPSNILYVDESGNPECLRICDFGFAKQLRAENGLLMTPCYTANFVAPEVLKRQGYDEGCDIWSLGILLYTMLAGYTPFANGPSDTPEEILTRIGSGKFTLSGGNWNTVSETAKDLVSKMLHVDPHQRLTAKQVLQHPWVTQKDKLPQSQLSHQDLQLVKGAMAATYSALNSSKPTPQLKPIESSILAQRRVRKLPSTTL
PLK2, sequence (Q9NYY3 whole entry): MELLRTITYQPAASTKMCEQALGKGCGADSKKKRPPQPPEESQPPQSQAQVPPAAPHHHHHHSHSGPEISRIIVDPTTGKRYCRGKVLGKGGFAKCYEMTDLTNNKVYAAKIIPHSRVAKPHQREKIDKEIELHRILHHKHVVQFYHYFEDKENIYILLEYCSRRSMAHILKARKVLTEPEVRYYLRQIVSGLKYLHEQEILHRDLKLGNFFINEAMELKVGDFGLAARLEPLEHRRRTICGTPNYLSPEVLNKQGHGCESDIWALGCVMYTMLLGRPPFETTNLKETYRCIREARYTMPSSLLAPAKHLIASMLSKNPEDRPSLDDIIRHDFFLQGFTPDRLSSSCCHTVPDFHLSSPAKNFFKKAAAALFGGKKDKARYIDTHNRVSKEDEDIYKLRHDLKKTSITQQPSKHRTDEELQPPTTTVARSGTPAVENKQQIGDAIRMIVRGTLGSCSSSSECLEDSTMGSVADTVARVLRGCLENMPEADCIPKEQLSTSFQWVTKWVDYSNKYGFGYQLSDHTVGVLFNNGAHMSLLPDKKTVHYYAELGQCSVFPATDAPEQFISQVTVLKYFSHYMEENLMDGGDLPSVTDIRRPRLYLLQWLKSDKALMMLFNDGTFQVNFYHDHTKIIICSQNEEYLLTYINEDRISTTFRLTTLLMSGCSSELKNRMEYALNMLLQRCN
PRKX, sequence (P51817 whole entry): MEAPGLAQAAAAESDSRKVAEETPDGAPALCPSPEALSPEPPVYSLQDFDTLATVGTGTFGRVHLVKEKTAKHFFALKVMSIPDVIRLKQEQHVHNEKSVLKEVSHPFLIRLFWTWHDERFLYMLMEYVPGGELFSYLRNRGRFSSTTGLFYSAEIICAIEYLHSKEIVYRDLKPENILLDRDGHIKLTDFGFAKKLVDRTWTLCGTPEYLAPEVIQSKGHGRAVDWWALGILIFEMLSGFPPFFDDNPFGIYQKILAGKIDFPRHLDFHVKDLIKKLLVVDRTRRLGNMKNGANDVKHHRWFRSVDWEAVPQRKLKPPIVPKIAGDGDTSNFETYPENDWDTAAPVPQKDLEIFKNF
CSNK2A1, sequence (P68400 whole entry): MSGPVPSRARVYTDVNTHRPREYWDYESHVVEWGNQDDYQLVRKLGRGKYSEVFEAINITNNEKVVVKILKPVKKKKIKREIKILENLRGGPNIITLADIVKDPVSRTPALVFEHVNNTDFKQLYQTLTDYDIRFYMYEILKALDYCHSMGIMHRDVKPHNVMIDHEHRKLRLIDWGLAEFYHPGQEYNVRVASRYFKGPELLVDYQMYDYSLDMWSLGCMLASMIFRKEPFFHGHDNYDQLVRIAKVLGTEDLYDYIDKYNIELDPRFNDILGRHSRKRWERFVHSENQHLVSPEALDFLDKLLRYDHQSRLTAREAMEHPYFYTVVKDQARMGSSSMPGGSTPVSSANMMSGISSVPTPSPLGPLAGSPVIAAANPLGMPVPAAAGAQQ

For orientation: inhibition means the relative decrease from the control value, in per cent. Consider `C[C@@H](Oc1cc(-c2cnn(C3CCNCC3)c2)cnc1N)c1c(Cl)ccc(F)c1Cl` [crizotinib], for which the inhibition at 1 µM in [1] was -4%; in test [2] it was 4%; in test [3], -15%; in [4] it was 21%; in test [5] it was 36%; in [6], 0%. For the same compound, the inhibition at 1 µM in test [7] is -14%; in test [8] it was -16%; in [9], 5%; in test [10], -4%; in [11], -1%; in test [12], -6%. The inhibition at 1 µM in [13] was -1%; in test [14] it was -1%; in test [15], 18%; in test [16], 40%; in test [17] it was 1%; in test [18], -1%.
